Measured values as given in PubChem BioAssay AID463136 (University of Pittsburgh Molecular Library Screening Center, 2010).
Results filed as inconclusive are left out. Activity calls are given as the source filed them. No rule for the calls is given here.

What was measured:
[1] = dynein cargo transport inhibitors, potency, dose response, imaging, high-content imaging (AID 463136); conditions: HCS imaging, dynein-mediated cargo transport inhibition; inhibition at max concentration; at 50 µM; stronger effect = higher value;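 also: mouse mammary adenocarcinoma 3617.4 cells expressing GFP-tagged rat glucocorticoid receptor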; as to inhibition: reference of the scale not given here
[2] = test system: HCS imaging, dynein-mediated cargo transport inhibition; assay: as above

Row | SMILES | inhibition [1] [%] | IC50 [2]
1 | CC(C)(C)C1C/C(=C/c2ccco2)C(=O)/C(=C/c2ccco2)C1 (stereo not given) | 101 | 24.9 µM
2 | O=C1CN(C(=O)Cn2ncc(Cl)c(Cl)c2=O)c2ccccc2N1 | 76.5 | 9.46 µM
3 | O=C(Cn1ncc(Cl)c(Cl)c1=O)N1CCN(S(=O)(=O)c2ccc3ccccc3c2)CC1 | 65.1 | 24.1 µM
4 | COc1ccc(CN=Cc2[nH]c3ccc(Br)c(Cl)c3c2O)cc1 | 93.4 | 28.5 µM
5 | Cc1nc([N+](=O)[O-])c(Br)n1CC(=O)c1ccc(Cl)cc1 | 88.1 | 13.1 µM
6 | CCNc1ccc(Br)cc(C(=O)/C=C/c2ccc(Cl)cc2Cl)c1=O | 99.2 | 32.9 µM
7 | COc1ccc(OC)c(N2C(=O)NC(=O)/C(=C/c3ccc([N+](=O)[O-])s3)C2=O)c1 | 86.6 | 12.5 µM
8 | CN(C)CCCN(C(=O)CCOc1ccccc1)c1nc2c(F)cccc2s1 | 30.5 | > 50 µM (inactive)
9 | COc1ccc(NC(=O)/C(Cl)=C(/Cl)S(=O)Cc2ccccc2)cn1 (stereo not given) | 64.4 | 19.5 µM
10 | CN(C(=O)CCl)C1CCCc2ccccc21 (stereo not given) | 70.4 | 6.32 µM
11 | CCSc1nnc(-c2sc3nnc(-c4ccccc4)c(-c4ccccc4)c3c2N)o1 | 134 | 31.3 µM
12 | O=C1C=CC(=O)N1CCNc1ncc(C(F)(F)F)cc1Cl | 21.2 | > 50 µM (inactive)
13 | Clc1ccc(-c2nnc(Sc3nc4ccccc4o3)c3ccccc23)cc1 | 83 | 39.3 µM
14 | Cc1nc([N+](=O)[O-])c(Br)n1Cc1ccccc1 | 84.8 | 6.35 µM
15 | C=CS(=O)(=O)c1sc(Cl)c(N2CCOCC2)c1[N+](=O)[O-] | 10.2 | > 50 µM (inactive)
16 | COC(=O)c1cc(=O)n(CCc2ccccc2F)c(=Nc2ccc(F)c(Cl)c2)s1 | 11.9 | > 50 µM (inactive)
17 | Nc1nc(Sc2c([N+](=O)[O-])cc(C(F)(F)F)cc2[N+](=O)[O-])n[nH]1 | 44.1 | 21.9 µM
18 | O=c1c(Cl)cc(Cl)nn1-c1ccccc1 | 72.4 | 10.5 µM
19 | O=C(c1ccc(F)cc1)C(CN1CCOCC1)c1ccccc1 (stereo not given) | 85.7 | 7.15 µM
20 | COC(=O)c1cc(NC(=O)c2cccc(Cl)c2)c(=O)oc1/C=C/Nc1cc(C)cc(C)c1 | 76.3 | 2.54 µM
21 | Cn1cc(Br)c(NC(=O)/C=C/C(=O)O)n1 | 6.1 | > 50 µM (inactive)
22 | CCOC(=O)C(=Cc1ccc(F)cc1)C(=O)OCC | 73.4 | 27.8 µM

Row | SMILES | inhibition [1] [%] | IC50 [2]
23 | Cc1ccc(NC(=O)C(=Cc2ccc(C(=O)O)cc2)C(=O)Nc2ccc(C)cc2C)c(C)c1 | 78 | 11.1 µM
24 | O=C(/C=C/Sc1ccccc1)c1ccccc1 | 76.9 | 30.3 µM
25 | CCN(CC)c1ccc2cc(-c3nc4ccccc4[nH]3)c(=O)oc2c1 | 98.9 | 21.9 µM
26 | CC[n+]1c(/C=C/C=C/N(C(C)=O)c2ccccc2)sc2cc(OC)ccc21 | 93.8 | 6.65 µM
27 | Nc1c(C(=O)C2CC2)sc2nc(-c3ccccc3)cc(C(F)(F)F)c12 | 134 | 31.2 µM
28 | Cc1ccc(-c2cn3nc(-c4ccccc4)c(-c4ccccc4)nc3n2)cc1 | 93.2 | 40.2 µM
29 | Cc1ccc(N2C(=O)NC(=O)/C(=C/C=C/c3ccco3)C2=O)cc1 | 114 | 24.8 µM
30 | CCOC(=O)c1c(-c2ccc(C)cc2)csc1NC(=O)/C(C#N)=C/c1ccc(O)c(OC)c1 | 4.51 | > 50 µM (inactive)
31 | O=C(c1nnsc1S(=O)(=O)c1ccc(Cl)cc1)N1CCOCC1 | 60.5 | 5.38 µM
32 | CCOC(=O)c1c(-n2c(C)cc(C=C3C(=O)NC(=S)NC3=O)c2C)sc2c1CCCC2 | 78.1 | 5.75 µM
33 | O=C(CCl)Nc1cccc(Oc2ccccc2)c1 | 56.5 | 38.8 µM
34 | COc1cc(/C=C2\COC/C(=C\c3ccc(O)c(OC)c3)C2=O)ccc1O | 64.3 | 39.7 µM
35 | CC(=O)Nc1sc(/C(C#N)=C\c2cccc(Cl)c2)nc1-c1ccc(C)cc1 | 109 | 8.22 µM
36 | O=[N+]([O-])c1ccc(N/N=C/c2c[nH]c3ccccc23)cc1 | 118 | 21.7 µM
37 | O=C(CCl)N(c1ccccc1)c1ccccc1 | 61.3 | 14.2 µM
38 | O=C(/C=C/c1cccnc1)/C=C/c1cccnc1 | 88.7 | 3.09 µM
39 | CCCNC(=O)c1nnsc1S(=O)(=O)c1ccc(Cl)cc1 | 69.3 | 8.66 µM
40 | O=C(/C=C/c1ccccn1)c1cc(Br)ccc1O | 69.4 | 28.3 µM
41 | COC(=O)c1cc(=O)n(Cc2ccco2)c(=Nc2ccc(F)c(Cl)c2)s1 | 31.4 | > 50 µM (inactive)
42 | Cc1ccc(NC(=O)CN(C)C(=O)Cn2ncc(Cl)c(Cl)c2=O)cc1 | 59 | 7.77 µM
43 | O=C1c2ccccc2-c2onc3ccc(NCc4ccco4)c1c23 | 87.2 | 41.4 µM
44 | CCN1C/C(=C/c2ccc(N3CCOCC3)cc2)C(=O)/C(=C/c2ccc(N3CCOCC3)cc2)C1 | 108 | 25 µM

Row | SMILES | inhibition [1] [%] | IC50 [2]
45 | C=CCSc1nnc(C)c(/C=C/Nc2ccc(Cl)cc2)n1 | 125 | 27.7 µM
46 | COC(=O)c1cc([N+](=O)[O-])c(-n2cncn2)c([N+](=O)[O-])c1 | 12.4 | > 50 µM (inactive)
47 | COC(=O)c1cc(=O)n(Cc2ccc(OC)c(OC)c2)c(=Nc2ccc(F)cc2)s1 | 74.3 | 24.6 µM
48 | O=C(c1ccccc1)c1cc(Cl)ccc1N1C(=O)C=CC1=O | 12 | > 50 µM (inactive)
49 | O=[N+]([O-])/C=C/c1cn(Cc2ccc(F)cc2)c2ccccc12 | 14 | > 50 µM (inactive)
50 | O=C(CCl)c1ccc2c(c1)CCN2C(=O)C1CCCCC1 | 78.2 | 27 µM
51 | CCOc1ccc(-n2c(C)cc(C(=O)CCl)c2C)cc1 | 82.2 | 24.9 µM
52 | COC(=O)c1cc(NC(=O)c2ccccc2)c(=O)oc1/C=C/Nc1ccc(Oc2ccccc2)cc1 | 102 | 1.16 µM
53 | Cc1cc(C(=O)CCl)c(C)n1-c1ccon1 | 61.3 | 11.8 µM
54 | Cc1cc2oc(=O)cc(Cn3ncc(Cl)c(Cl)c3=O)c2cc1Cl | 65.7 | 20.1 µM
55 | CC(C)Cn1c([N+](=O)[O-])nc2c1c(=O)[nH]c(=O)n2C | 83.8 | 5.26 µM
56 | Cc1nc([N+](=O)[O-])c(Br)n1CC(=O)c1ccc2ccccc2c1 | 81.3 | 5.15 µM
57 | CNCc1ccccc1Sc1cc(O)ccc1O | 74.1 | 38.5 µM
58 | Cc1ccc(C(=O)Oc2oc(-c3ccco3)nc2C=Nc2ccc(Cl)cc2)cc1 | 65.2 | 46.3 µM
59 | CC(C)(C)c1cc(CN(CCO)CCO)cc(C(C)(C)C)c1O | 33.9 | > 50 µM (inactive)
60 | Nc1c(C(=O)c2ccc(Cl)cc2)sc2nsc(SCCN3CCOCC3)c12 | 7.23 | > 50 µM (inactive)
61 | CCN1CCN(C2=CC3=CC(=C(C#N)C#N)CCC3CC2)CC1 (stereo not given) | 99.2 | 30.6 µM
62 | Cc1ccc(C2=NOC(=O)/C2=C\C=C\c2ccccc2)cc1 | 71 | 36.6 µM
63 | O=C(CCl)Nc1ccc(-c2ccccc2)cc1 | 66 | 14.3 µM
64 | Cc1ccc(N(C(=O)CCl)C(C(=O)NC2CCCCC2)c2cccnc2)cc1C (stereo not given) | 86.1 | 4.62 µM
65 | CCCCNc1ccc2c3c(cccc13)C(=O)N(CCCC)C2=O | 13.5 | > 50 µM (inactive)
66 | Cc1ccc(C2=NN(C(=O)CCl)C(c3cccs3)C2)o1 (stereo not given) | 80.3 | 8.74 µM

Row | SMILES | inhibition [1] [%] | IC50 [2]
67 | CC(=O)Nc1c([N+](=O)[O-])cc(C)c(Cl)c1[N+](=O)[O-] | 88.8 | 11.2 µM
68 | N=c1oc2c3c4c(cc2cc1C(=O)Nc1ccccc1)CCCN4CCC3 | 99 | > 50 µM (inactive)
69 | O=C(Cc1ccccc1)Nc1cccc(N2C(=O)C=CC2=O)c1 | 4.22 | > 50 µM (inactive)
70 | CC1=NN(c2ccccc2)C(=O)/C1=C/C=C/c1ccccc1 | 22.7 | > 50 µM (inactive)
71 | CN(C)c1ccc(/C=C/C(=O)c2cccc(Br)c2)cc1 | 18.7 | > 50 µM (inactive)
72 | O=c1c2ccccc2sn1-c1ccccc1 | 90.4 | 12.7 µM
73 | COc1ccc(N(C(=O)CCl)C(C(=O)NCCc2ccccc2)c2cccs2)cc1Cl (stereo not given) | 93.6 | 14.8 µM
74 | Cc1ccc(NC(=O)CCl)cc1S(=O)(=O)N1CCCCCC1 | 88.6 | 10.6 µM
75 | O=c1cc(N=Nc2ccc(Cl)cc2)[nH]c(=O)[nH]1 | 80.6 | 13.6 µM
76 | N#C/C(=C/c1ccc(N2CCCCC2)o1)C(=O)Nc1ccc(Cl)cc1 | 97.4 | 40.4 µM
77 | Cc1ccc2nc(/C(C#N)=C\c3ccc(N4CCOCC4)o3)[nH]c2c1 | 80.2 | 13.1 µM
78 | COc1ccc(-n2cccc2/C=C/[N+](=O)[O-])cc1 | 14.4 | > 50 µM (inactive)
79 | O=C1NC(=O)N(c2ccccc2)C(=O)/C1=C\c1ccc([N+](=O)[O-])s1 | 85.5 | 14.4 µM
80 | O=C(O)c1ccc(NC2=C(Cl)C(=O)c3ccccc3C2=O)cc1 | 71.1 | 15.2 µM
81 | O=C1C(Cl)=C(Nc2ccc3cn[nH]c3c2)C(=O)c2ccccc21 | 66.6 | 18.2 µM
82 | CCc1ccccc1NC(=O)CN(C)C(=O)Cn1ncc(Cl)c(Cl)c1=O | 81.8 | 7.32 µM
83 | CC1CCN(C(=O)c2ccc3c(Cl)c4c(nc3c2)CCCC4)CC1 | 76.6 | 21.4 µM
84 | CC(=O)n1cc(N(C(=O)CCl)c2ccc([N+](=O)[O-])cc2)c2ccccc21 | 25.2 | > 50 µM (inactive)
85 | CC[n+]1c(/C=C2\Sc3ccccc3N2C)ccc2cccc(C)c21 | 28.3 | 0.765 µM
